# Assays:
# Format in all cases: cell-based
# [1] = tested on: Influenza A/WSN/33 (H1N1); experiment: microbe, parasite or virus in culture; settings: read-out: Inhibitory Rates, anti-influenza A virus activity
# SGLT1 = molecular target: T1, SGLT1 (Homo sapiens, UniProt P13866); experiment: 1-NBDG uptake in HEK293 cells stably expressing SGLT1; settings: HEK293, compound at 10 μM; triplicate; read-out: SGLT1 inhibitory rates
# T1 construct: The full-length SGLT1 cDNA was obtained by PCR with forward primer; expressed in transfected cells
# T1 sequence (P13866 1-664): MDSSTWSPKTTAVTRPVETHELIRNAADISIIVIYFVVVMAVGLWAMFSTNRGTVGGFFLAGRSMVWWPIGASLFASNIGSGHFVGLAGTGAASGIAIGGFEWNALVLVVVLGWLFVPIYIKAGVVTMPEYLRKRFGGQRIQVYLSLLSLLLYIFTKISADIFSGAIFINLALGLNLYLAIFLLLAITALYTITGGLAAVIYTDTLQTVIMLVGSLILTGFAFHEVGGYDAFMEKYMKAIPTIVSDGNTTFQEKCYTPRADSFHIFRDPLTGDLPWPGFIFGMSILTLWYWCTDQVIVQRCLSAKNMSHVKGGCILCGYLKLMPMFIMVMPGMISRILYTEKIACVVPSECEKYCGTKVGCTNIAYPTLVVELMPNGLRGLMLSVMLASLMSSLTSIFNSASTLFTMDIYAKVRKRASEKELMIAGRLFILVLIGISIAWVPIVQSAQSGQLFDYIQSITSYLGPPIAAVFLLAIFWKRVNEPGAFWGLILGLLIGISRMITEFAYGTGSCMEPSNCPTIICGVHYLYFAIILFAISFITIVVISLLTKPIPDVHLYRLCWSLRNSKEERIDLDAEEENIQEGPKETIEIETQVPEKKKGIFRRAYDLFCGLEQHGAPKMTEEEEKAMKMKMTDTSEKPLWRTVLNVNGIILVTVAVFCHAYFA
# SGLT2 = molecular target: T2, SGLT2 (Homo sapiens, UniProt P31639); experiment: 1-NBDG uptake in HEK293 cells stably expressing SGLT2; settings: triplicate
# T2 construct: Human full-length SGLT2 cDNA (NM_003041.3) was synthesized; expressed in transfected cells; host or cells: HEK293, retroviral transduction with pMSCVpuro-SGLT2, puromycin selected
# T2 sequence (P31639 1-672): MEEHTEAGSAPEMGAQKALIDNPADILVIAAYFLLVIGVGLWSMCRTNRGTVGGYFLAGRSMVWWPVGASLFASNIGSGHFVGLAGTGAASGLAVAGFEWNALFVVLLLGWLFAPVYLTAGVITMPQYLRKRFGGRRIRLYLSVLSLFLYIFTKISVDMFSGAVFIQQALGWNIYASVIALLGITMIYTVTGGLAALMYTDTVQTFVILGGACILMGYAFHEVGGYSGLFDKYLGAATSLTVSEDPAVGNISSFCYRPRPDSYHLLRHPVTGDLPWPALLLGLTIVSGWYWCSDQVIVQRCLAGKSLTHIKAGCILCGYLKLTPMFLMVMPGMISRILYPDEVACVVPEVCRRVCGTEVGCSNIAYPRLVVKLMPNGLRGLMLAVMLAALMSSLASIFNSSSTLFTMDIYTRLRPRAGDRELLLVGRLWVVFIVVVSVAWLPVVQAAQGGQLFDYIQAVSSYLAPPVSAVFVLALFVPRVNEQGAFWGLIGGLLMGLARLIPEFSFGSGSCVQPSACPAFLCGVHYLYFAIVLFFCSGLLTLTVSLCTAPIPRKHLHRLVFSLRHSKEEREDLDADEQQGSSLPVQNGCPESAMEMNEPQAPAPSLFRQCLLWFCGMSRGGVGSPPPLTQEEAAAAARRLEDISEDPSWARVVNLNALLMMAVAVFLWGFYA
SMILES,inhibition at 30 µM ([1]; ribavirin (positive control) at 30 μM) [%],"inhibition at 20 µM ([1]; final concentration 20 μM, — = no inhibition activity) [%]",inhibition at 10 µM (SGLT1) [%],"inhibition at 10 µM (SGLT2; HEK293, compound at 10 μM, read-out: SGLT2 inhibitory rates) [%]","SGLT2 inhibitory rates (SGLT2; compound at 10 μM, 10 µM) [%]"
"NC(=O)c1ncn([C@@H]2O[C@H](CO)[C@@H](O)[C@H]2O)n1 [Ribavirin, reference compound]",85.6,,,,
OCC1OC(c2c(O)cc(O)c(Cc3ccc4nccnc4c3)c2O)C(O)C(O)C1O (centres unmarked) [Compound 44a],,82.8,31.8,> 96,96.6

# Source: PMC7558026, “Exploring and applying the substrate promiscuity of a C-glycosyltransferase in the chemo-enzymatic synthesis of bioactive C-glycosides” (Nature Communications, 2020)
